These results are taken from patent publication US9139551B2, “Preparation of a new class of water-soluble ammonium 2,3-dihydroxy-5-((2R,3R)-3,5,7-trihydroxy-4-oxochroman-2-yl) phenolates and their biological activity of alcohol elimination” (priority 2014, dated 2015).

In the assay the test system is Balb/C mice. As to the kind of experiment: Dose-effect relationship of TDHM (sleep time and climbing time). The class given is in vivo. As for the experimental part:
Assay the Dose-Effect Relationship of TDHM • Groups design and treatment before experiment are the same as that in Deintoxication test. 30 minutes before intragastric administration of alcohol, mice were gavaged with 0.5 mg/kg BW, 2.0 mg/kg BW, 8.0 mg/kg BW, 32 mg/kg BW, 64 mg/kg BW, 128 mg/kg BW TDHM respectively. Sleep time and climbing time were recorded.

Where [1] appears, read: 8.0 mg/kg BW intragastric, drunk mice.
Where [2] appears, read: TDHM 0.5 mg/kg gavage 30 min before alcohol.
Where [3] appears, read: TDHM 2 mg/kg gavage 30 min before alcohol.
The mark [4] stands for this setting: TDHM 8 mg/kg gavage 30 min before alcohol.
Where [5] appears, read: TDHM 32 mg/kg gavage 30 min before alcohol.
Setting [6] is: TDHM 64 mg/kg gavage 30 min before alcohol.
The mark [7] stands for this setting: TDHM 128 mg/kg gavage 30 min before alcohol.

With “triethylammonium 2,3-dihydroxy-5-((2R,3R)-3,5,7-trihydroxy-4-oxochroman-2-yl)phenolate [TDHM]”, the “climbing time vs other concentrations of TDHM” value under setting [1] is given as “longer”. Under setting [1], the “sleep time vs other concentrations of TDHM” value is given as “significantly shorter”. Further, the Climbing time came out at 184.5 min under setting [2]; 272.67 min under setting [3]; 368.33 min under setting [4]; 243.17 min under setting [5]; 271.83 min under setting [6]; 298.33 min under setting [7]. Besides, the Holding time is recorded as 147.2 min under setting [2]; 151.00 min under setting [3]; 104.5 min under setting [4]; 106.67 min under setting [5]; 84.33 min under setting [6]; 93.5 min under setting [7].
